Experimental data from patent US20140030808A1, “Method for Cellular RNA Expression” (BIONTECH AG, priority 2010, published 2014).

How the values were obtained:
Format in all cases: cell-based
[1] = test system: human foreskin fibroblasts; experiment: Luciferase activity after lipofection (RNAiMAX) of IVT RNA; conditions: increasing concentrations
Protocol: 1.2 μg 5′-triphosphorylated and non-modified IVT RNA (0.8 μg encoding luciferase, 0.4 μg GFP) was packaged with 6 μl RNAiMAX transfection reagent (Invitrogen) and transfected into human foreskin fibroblasts and the medium supplemented with increasing concentrations of C13H8N4OS. At the indicated time points the cells were lysed and luciferase activity of the lysates was measured. […] This effect was dose-dependent.
To study whether C13H8N4OS could also enhance translation upon liposomal IVT RNA transfer, 1.2 μg 5′-triphosphorylated and non-modified IVT RNA (0.8 μg encoding luciferase, 0.4 μg GFP) was packaged with 6 μl RNAiMAX transfection reagent (Invitrogen) and transfected into human foreskin fibroblasts. After 3 h incubation with the transfection mixture, the medium was renewed and supplemented with increasing concentrations of C13H8N4OS. At the time points indicated in FIG. 15 the cells were lysed using luciferase stabilizing passive lysis buffer (Promega) according to the manufacturer's instructions. By the end of the time course, luciferase activity of all lysates was measured. […] This effect was dose-dependent. One of three independently performed experiments is shown. Thus, the effect of C13H8N4OS on translation of IVT RNA is not restricted to the delivery via electroporation. […]

[2] = test system: murine embryonic fibroblasts (MEFs); experiment: Luciferase reporter gene assay in murine fibroblasts electroporated with IVT RNA; conditions: 0.5 μM to 2 μM, mouse fibroblasts, after electroporation
Protocol: (A-C) Primary human foreskin fibroblasts from different donors and suppliers (panel A: BJ fibroblasts; panel B CCD1079Sk; panel C: HFF) and (D) murine embryonic fibroblasts (MEFs) were electroporated with 0.5 μg IVT RNA encoding for firefly luciferase and 1.25 μg IVT RNA encoding for enhanced GFP (eGFP). The cells were plated in duplicates into 96-well-plates at a density of 30000 cells/well. The cells were either left untreated or incubated with increasing amounts of C13H8N4OS (PKR-inhibitor) ranging from 0.5 μM to 2 μM as indicated in the panel legends. Luciferase activity was measured at the indicated time points. Mean values of the duplicates are given.
Transfer of IVT-RNA into cells was performed by electroporation (EP). To this end, 1-10×10^7 cells per EP were harvested, washed sequentially with PBS supplemented with 2 mM EDTA and X-VIVO 15 medium (Lonza), resuspended in 125 μl X-VIVO 15 medium and transferred to a 2-mm gap sterile electroporation cuvette (Bio-RAD, Hercules, Calif., USA). […]
For luciferase assays, cells electroporated with in vitro transcribed RNA coding for luciferase were plated in 96-well white flat-bottom microplates (Nunc, Langenselbold, Germany) and incubated at 37° C. […] Bioluminescence flux was measured with the Infinite M200 microplate luminescence reader (Tecan, Crailsheim, Germany) with 1 s integration time. […]

[3] = test system: Primary human umbilical vein endothelial cells (HUVECs)

Compound: O=C1Nc2ccc3ncsc3c2/C1=C/c1c[nH]cn1 [C13H8N4OS, 6,8-dihydro-8-(1H-imidazol-5-ylmethylene)-7H-pyrrolo[2,3-g]benzothiazol-7-one]
- dose dependence of the effect on translation of luciferase [1]: dose-dependent
- translation of luciferase after liposomal IVT RNA transfer [1]: stabilizing effect on translation of luciferase
- luciferase expression [2]: dose dependent increase
- luciferase expression ([3]; 0.5 μM to 2 μM, HUVECs): enhanced in HUVECs in a dose dependent manner
- luciferase expression on additional application of inhibitor ([3]; HUVECs cotransfected with E3 and K3, increasing concentrations of C13H8N4OS): additively enhanced
- duration of luciferase expression compared with fibroblasts ([3]; HUVECs, PKR inhibition): not as long lasting as observed in fibroblasts
